The values that follow come from patent publication US20210393667A1, “TARGET FOR ANTI-CANCER THERAPY” (Phoremost Limited, priority 2018, published 2021).

Read-outs that look alike come from different tables or passages of the source.

Data set [1] relates to CA18-NanoLuc frameshift reporter in HEK293FT cells. Kind of data set: Frameshift reporter (FSR) CA(18)-NanoLuc assay, small molecule treatment. The note with it: for increase in FSR signal: 72 hours, vs untreated FSR luminescence; for FSR activity (in words): dose range. In kind it is cell-based. The text has this: In order to read out mismatch repair (MMR) and hypermutability in mammalian cells, a Frameshift reporter (FSR) assay was used. The assay specifically focuses on frameshifts because, of all mismatch mutations, these are the ones that most abundantly generate neoantigens (see, for example, Turajlic et al. Lancet Oncol. 2017 (18; 1009-21). The assay based on the activity of the NanoLuciferase (NanoLuc®, Promega) reporter enzyme was developed (the “CA(n)-NanoLuc assay”). Copies of the CA dinucleotide repeat (referred to as “CA(n)”) were cloned upstream of the NanoLuc coding sequence. Typically 18 copies of the CA dinucleotide repeat (CA(18)) were used. Alternatively, the assay used 20 copies (CA(20)). This CA(n) tract renders the NanoLuc coding sequence out of frame, and therefore there is no reporter enzyme expression and no activity. The CA(n) tract is, however, a sequence which is subject to frequent DNA replication errors, and is therefore reliant on the MMR pathway to repair any post-replicative DNA mismatches. In a MMR-competent cell, any errors are efficiently repaired, the NanoLuc coding sequence remains out of frame and thus reporter activity is low. If, however, MMR is inhibited either by a small molecule or by genetic loss of any of the MMR machinery, post-replicative errors may remain unrepaired, frameshift mutations may occur, and therefore some cells in a population will now express a functional NanoLuc protein.
MMR inhibition can therefore be reported as an increase in NanoLuc® activity when a plasmid containing a CA repeat, such as the CA(18) NanoLuc construct, is transfected into cells. Since NanoLuc® is a highly processive enzyme with a large and linear dynamic range, it was predicted that only a small number of MMR errors would be required to generate a positive signal, making for a sensitive assay with a large signal to noise ratio.
In addition, it has been shown that inhibition of RNR causes altered pools of dNTP resulting in increased mutation rates. Relatively modest dNTP pool deviations induce exceptionally strong mutator phenotypes which cause saturation of the DNA mismatch repair system and lead to detection in the FSR assay system.
HEK293FT cells seeded at 600,000 cells per well in a 6 well plate and incubated overnight. Media was replaced and incubated a further 2 hours before transient transfection of pcDNA3.1 Hygro CA18Nluc (0.5 μg). After 4 hours media was replaced and incubated overnight. Media was aspirated, cells washed with PBS and trypsinised. Cells were pelleted by centrifugation (1000×g, 5 mins), washed in PBS, centrifuged again and resuspended in fresh media to […].
(§1) A 96 well plate was seeded with 100 μl of transfected cells and incubated overnight. A 2× solution of clofarabine was made to 100 μM in DMEM and 9× two-fold dilutions were made in growth media. A parallel dilution series was made with equal concentrations of DMSO as a control. 100 μL of clofarabine or DMSO solution was added to wells of 96 well plates (6 replicates per concentration). PBS was added to outer wells of 96 well plates and incubated for 48 hours. To 3 wells per concentration a 1:1 ratio of CellTiter Glo (Promega) was added. To remaining wells, an equal volume of NanoGlo (Promega) reagent was added. 100 μL was aliquoted from each well to a 96 well, white walled, white bottomed plate and luminescence read. Percentage viability was calculated for all conditions in comparison to an untreated control and nanoluciferase reading were normalised to viability.
For triapine treatment, cells were initially seeded into 6 well plates and transfected with the pcDNA3.1 Hygro CA18Nluc construct, as in the detailed method for clofarabine treatment. After transfection, cells were trypsinised and seeded into white-walled 384 well plates at a density of 2000 cells per well in a final volume of 30 uL. After 24 hours, cells were treated with compounds or a DMSO solvent control in a final volume of 3.3 uL. […]

Data set [2] deals with CT26 cells. In words: T cell killing assay with clofarabine-treated CT26 cells. In kind it is cell-based, mouse. The note with it: CT26 cells treated with 100 nM for 100 days; stimulated and unstimulated, C57BL/6- and Balb/c-derived CD8 T cells, 10:1, 72 h.
Experimental: T-cell extraction: Spleen from C56BL/6 and Balb/c mice was homogenised aseptically using a cell strainer and syringe plunger. RBC was lysed using lysis buffer and remaining cells washed and counted. Dynabeads untouched mouse CD8 cell kit (Thermofisher: 11417D) used to isolate CD8 cells using negative selection. Half these cells were cultured as unstimulated for assay controls but the majority was cultured with Dynabeads Mouse T-activator CD3/CD28 beads for 24 h prior to assay. T-cell assay: CT26 tumour cell lines (parental as control) was plated at 3,000 cells per well into a 96 well plate; effector cells at a ratio of 10:1 was added along with appropriate stains and imaged on the EVOS microscope over a period of 72 h.
The subject of data set [3] is HEK293FT cells. Kind of data set: GI50, standard dosimetric assay testing for cell growth. In kind it is cell-based.
The subject of data set [4] is CT26 cells. Kind of data set: Whole exome sequencing of CT26 cells after 100 days of clofarabine. In kind it is cell-based, mouse. As to conditions: 100 nM, relative to matched vehicle only control. The protocol: CT26 cells, cultured in RPM11640 were dosed with 100 nM clofarabine or with DMSO only. Cells were passaged and re-dosed every 72 hours. Cells were harvested at 100 days, and single-cell colonies (SSCs) derived for each sample. After expansion over 8-10 days, genomic DNA was extracted from SSC pellets and whole exome sequencing (WES) performed following methods such as those described, for example, in WO2017/182783, see page 33, line 21 onwards and page 34, lines 1 to 5.
Somatic single nucleotide variants (SNVs), multiple-nucleotide polymorphisms (MNPs), and insertion-deletion (InDel) mutations were identified using the GATK4 Toolkit and GATK's Mutect2 (version 4.1.4.0) to analyse the WES data. Prior to mapping the read sequences to the reference genome (mm10), read data quality and adapter trimming and QC was performed using TrimGalore and a Q-score cut-off of 30. Reads were aligned to mm10 using BWA mem (version 0.7.17-r1188). Duplicate reads were marked using MarkDuplicates (Picard, GATK4 copy). Variant discovery using Mutect2 was performed using a custom generated interval list and Panel of Normals (PON) resource. The interval list was derived for a BED file of canonical transcript exon positional information for mm10, which was generated using the UCSC TableBrowser. The PON was derived for matched CT26 WES data using Mutect2, GenomicsDBImport, and CreateSomaticPanelOfNormals. Variant filtering was performed using FilterMutectCalls (GATK4). Variants detailed in the VCF files generated using FilterMutectCalls were further filtered using a shell script in order to keep only variants meeting the quality control thresholds applied by FilterMutectCalls and exclude variants identified for reads mapping to unlocalized and unplaced contigs. The functional effects of the identified variants (on genes, transcripts, protein sequences, and regulatory regions) were predicted using the Ensembl Variant Effect Predictor (VEP).

For data set [5] the following is noted: recommended dose for adult acute leukemia, 40 mg/m2/day×5 days; cited from earlier work.
A short description of data set [6]: CellTitre Glo viability assay. In kind it is cell-based. As to conditions: human. The protocol: as §1
(§2) For triapine treatment, cells were initially seeded into 6 well plates and transfected with the pcDNA3.1 Hygro CA18Nluc construct, as in the detailed method for clofarabine treatment. After transfection, cells were trypsinised and seeded into white-walled 384 well plates at a density of 2000 cells per well in a final volume of 30 uL. After 24 hours, cells were treated with compounds or a DMSO solvent control in a final volume of 3.3 uL. Compound stock was diluted to achieve a final concentration of 10 uM, and compounds were serially diluted in DMSO by three-fold to generate the dose-response curve. Compound was subsequently diluted in media, and then added to cells in 3.3 uL, ensuring a final concentration of DMSO no greater than 0.5%. PBS was added to outer wells of the 384 well plates and incubated for 72 hours. To 3 wells per concentration, 5 uL of CellTiter Glo (Promega) was added. To remaining wells, 30 uL of NanoGlo (Promega) reagent was added and incubated at room temperature for 30 minutes. Luminescence was read. Percentage viability was calculated for all conditions in comparison to an untreated control and nanoluciferase reading were normalised to viability.

For data set [7], the system named is HEK293FT cells. Kind of data set: CellTitre Glo viability assay. In kind it is cell-based. As to conditions: HEK293FT cells, 3.33 uM, 72 hours. The protocol: as §1, §2

For `Nc1nc(Cl)nc2c1ncn2[C@@H]1O[C@H](CO)[C@@H](O)[C@@H]1F` [clofarabine, (2R,3R,4S,5R)-5-(6-amino-2-chloropurin-9-yl)-4-fluoro-2-(hydroxymethyl)oxolan-3-ol], the “increase in FSR signal” value in data set [1] (50 nM) turned out to be 40%. Also, in data set [1], the “FSR activity (in words)” value is on record as “dose-dependent increase in FSR activity”. The T cell killing result in the data set with CT26 cells [2] is reported as “significantly increase T cell killing”. The molecule further came in with a GI50 in the data set on HEK293FT cells [3] of 430 nM. Further, in the data set on CT26 cells [4], the “overall burden of mutations (largely SNV)” value was “does not increase substantially”, the “proportion of frame-shift causing InDel mutations” value is “elevated” and the “total count of frame-shift causing InDel mutations” value is recorded as “elevated”. Moreover, in data set [5], the plasma levels entry is on record as “around 1 μM”. The molecule further registered a viability at 72 h, 0.05 µM in data set [6] of 92%.

As for `Nc1nc(Cl)nc2c1ncn2[C@H]1C[C@H](O)[C@@H](CO)O1` [cladribine, Cladribine], the “increase in FSR signal” value in data set [1] (3.33 uM) is reported as 226%. For the same molecule, the reduction in viability result in the data set with HEK293FT cells [7] is “no reduction in viability”.

Consider `NC(=S)N/N=C/c1ncccc1N` [triapine], for which the “increase in FSR signal” value in data set [1] (370 nM) is reported as 400%. The molecule also displayed a GI50 in the data set on HEK293FT cells [3] of 600 nM. In data set [6] (HEK293FT cells, 370 nM, 72 hours, vs DMSO control, read-out: reduction in viability), the cytotoxicity at 72 h, 370 nM turned out to be 23%.

Regarding `Nc1ccn([C@@H]2O[C@H](CO)[C@@H](O)C2(F)F)c(=O)n1` [gemcitabine], the “increase in FSR signal” value in data set [1] (370 nM) is 300%. The “FSR activity (in words)” value in data set [1] is “causes an increase in FSR activity”. The molecule further came in with a GI50 in the data set with HEK293FT cells [3] of 440 nM. In data set [6], this molecule registered a cytotoxicity at 72 h, 370 nM of 50%.

What is called GI50 is the concentration giving 50% growth inhibition. A low value points to greater sensitivity of the cells. The viability is a read-out of living cells in per cent, often relative to untreated cells.
